Measurements as given in patent US9840507B2, “5,6-dihydro-imidazo[1,2-a]pyrazin-8-ylamine derivatives useful as inhibitors of beta-secretase (BACE)” (Janssen Pharmaceutica, NV, priority 2010, dated 2017).

Key:
[1] = test system: Aβtotal produced and secreted into the medium of human neuroblastoma SKNBE2 cells; test: Cellular αlisa assay in SKNBE2 cells, Aβtotal; type: cell-based; details: Homo sapiens, SKNBE2, 18 h, SKNBE2 cells expressing hAPP695, incubated for 18 hours; read-out: Cellular αlisa assay in SKNBE2 cells Aβtotal pIC50 (converted)
Method: (§1) In two αlisa assays the levels of Aβtotal and Aβ42 produced and secreted into the medium of human neuroblastoma SKNBE2 cells are quantified. The assay is based on the human neuroblastoma SKNBE2 expressing the wild type Amyloid Precursor Protein (hAPP695). The compounds are diluted and added to these cells, incubated for 18 hours and then measurements of Aβ42 and Aβtotal are taken. Aβtotal and Aβ42 are measured by sandwich αlisa. αlisa is a sandwich assay using biotinylated antibody AbN/25 attached to streptavidin coated beads and antibody Ab4G8 or cAb42/26 conjugated acceptor beads for the detection of Aβtotal and Aβ42 respectively. In the presence of Aβtotal or Aβ42, the beads come into close proximity. The excitation of the Donor beads provokes the release of singlet oxygen molecules that triggers a cascade of energy transfer in the Acceptor beads, resulting in light emission. Light emission is measured after 1 hour incubation (excitation at […] and emission at 615 nm).
(§2) A best-fit curve is fitted by a minimum sum of squares method to the plot of % Controlmin versus compound concentration.
(§3) LC=Median of the low control values
(§4) =Low control: cells preincubated without compound, without biotinylated Ab in the αlisa
(§5) HC=Median of the High control values
(§6) =High Control: cells preincubated without compound % Effect=100−[(sample−LC)/(HC−LC)*100] % Control=(sample/HC)*100% % Controlmin=(sample−LC)/(HC−LC)*100

[2] = target: T1, recombinant BACE1 protein (Homo sapiens, UniProt P56817); test: Biochemical FRET based assay; details: recombinant BACE1 1 μg/ml, 10 μm substrate, 120 minutes, room temperature, pH 5.0; read-out: Biochemical FRET based assay pIC50 (converted)
T1 construct: recombinant BACE1 protein in a final concentration of 1 μg/ml
Description: This assay is a Fluorescence Resonance Energy Transfer Assay (FRET) based assay. The substrate for this assay is an APP derived 13 amino acids peptide that contains the ‘Swedish’ Lys-Met/Asn-Leu mutation of the amyloid precursor protein (APP) β-secretase cleavage site. This substrate also contains two fluorophores: (7-methoxycoumarin-4-yl) acetic acid (Mca) is a fluorescent donor with excitation wavelength at 320 nm and emission at 405 nm and 2,4-Dinitrophenyl (Dnp) is a proprietary quencher acceptor. […] Upon cleavage by BACE1, the fluorophore Mca is separated from the quenching group Dnp, restoring the full fluorescence yield of the donor. The increase in fluorescence is linearly related to the rate of proteolysis (Koike H et al. J. Biochem. 1999, 126, 235-242).
Briefly in a 384-well format recombinant BACE1 protein in a final concentration of 1 μg/ml is incubated for 120 minutes at room temperature with 10 μm substrate in incubation buffer (40 mM Citrate buffer pH 5.0, 0.04% PEG, 4% DMSO) in the absence or presence of compound. Next the amount of proteolysis is directly measured by fluorescence measurement at T=0 and T=120 (excitation at 320 nm and emission at 405 nm).
as §3
=Low control: Reaction without enzyme
as §5
=High Control: Reaction with enzyme % Effect=100−[(sample−LC)/(HC−LC)*100] % Control=(sample/HC)*100% % Controlmin=(sample−LC)/(HC−LC)*100

[3] = test system: brain levels of soluble Aβ42; test: In vivo efficacy: brain Aβ42 lowering (ELISA); parameters: species or system mouse; details: 30 mpk
Description: (§7) To determine whether acute administration of an Aβ42 peptide lowering agent would reduce Aβ peptide levels in vivo, non-transgenic rodents, e.g. mice or rats were used. Animals treated with the Aβ peptide lowering agent were examined and compared to those untreated or treated with vehicle and brain levels of soluble Aβ42 and total Aβ were quantitated by standard techniques, for example, using ELISA. Treatment periods varied from hours (h) to days and were adjusted based on the results of the Aβ42 lowering once a time course of onset of effect could be established.
(§8) A typical protocol for measuring Aβ42 lowering in vivo is shown but it is only one of many variations that could be used to optimize the levels of detectable Aβ. For example, Aβpeptide lowering compounds were formulated in 20% hydroxypropyl β cyclodextrin. The Aβ peptide lowering agents were administered as a single oral dose (p.o.) or a single subcutaneous dose (s.c.) to overnight fasted animals. After a certain time, usually 2 or 4 h (as indicated in Table 19), the animals were sacrificed and Aβ42 levels were analysed.
(§9) Blood was collected by decapitation and exsanguinations in EDTA-treated collection tubes. Blood was centrifuged at 1900 g for 10 minutes (min) at 4° C. and the plasma recovered and flash frozen for later analysis. The brain was removed from the cranium and hindbrain. The cerebellum was removed and the left and right hemisphere were separated. The left hemisphere was stored at −18° C. for quantitative analysis of test compound levels. The right hemisphere was rinsed with phosphate-buffered saline (PBS) buffer and immediately frozen on dry ice and stored at −80° C. until homogenization for biochemical assays.
(§10) Mouse brains from non-transgenic animals were resuspended in 8 volumes of 0.4% DEA (diethylamine)/50 mM NaCl containing protease inhibitors (Roche-11873580001 or 04693159001) per gram of tissue, e.g. for 0.158 g brain, add 1.264 ml of 0.4% DEA. All samples were homogenized in the FastPrep-24 system (MP Biomedicals) using lysing matrix D (MPBio #6913-100) at 6 m/s for 20 seconds. Homogenates were centrifuged at 221.300×g for 50 min. The resulting high speed supernatants were then transferred to fresh eppendorf tubes. Nine parts of supernatant were neutralized with 1 part 0.5 M Tris-HCl pH 6.8 and used to quantify Aβtotal and Aβ42.
(§11) To quantify the amount of Aβtotal and Aβ42 in the soluble fraction of the brain homogenates, Enzyme-Linked-Immunosorbent-Assays were used. Briefly, the standards (a dilution of synthetic Aβ1-40 and Aβ1-42, Bachem) were prepared in 1.5 ml Eppendorf tube in Ultraculture, with final concentrations ranging from 10000 to 0.3 pg/ml. The samples and standards were co-incubated with HRPO-labelled N-terminal antibody for Aβ42 detection and with the biotinylated mid-domain antibody 4G8 for Aβtotal detection. 50 μl of conjugate/sample or conjugate/standards mixtures were then added to the antibody-coated plate (the capture antibodies selectively recognize the C-terminal end of Aβ42, antibody JRF/cAβ42/26, for Aβ42 detection and the N-terminus of Aβ, antibody JRF/rAβ/2, for Aβtotal detection). The plate was allowed to incubate overnight at 4° C. in order to allow formation of the antibody-amyloid complex. Following this incubation and subsequent wash steps the ELISA for Aβ42 quantification was finished by addition of Quanta Blu fluorogenic peroxidase substrate according to the manufacturer's instructions (Pierce Corp., Rockford, Il). A reading was performed after 10 to 15 min (excitation 320 nm/emission 420 nm).
In this model at least 20% Aβ42 lowering compared to untreated animals would be advantageous.

[4] = test system: Aβ42 produced and secreted into the medium of human neuroblastoma SKNBE2 cells; test: Cellular αlisa assay in SKNBE2 cells, Aβ42; type: cell-based; details: Homo sapiens, SKNBE2, 18 h, SKNBE2 cells expressing hAPP695, incubated for 18 hours; read-out: Cellular αlisa assay in SKNBE2 cells Aβ42 pIC50 (converted)
Method: as §1, §2, §3, §4, §5, §6

[5] = test system: brain levels of total Aβ; test: In vivo efficacy: brain Aβtotal lowering (ELISA); parameters: species or system mouse; details: 30 mpk
Description: as §7, §8, §9, §10, §11
For Aβtotal detection, a Streptavidine-Peroxidase-Conjugate was added, followed 60 min later by an additional wash step and addition of Quanta Blu fluorogenic peroxidase substrate according to the manufacturer's instructions (Pierce Corp., Rockford, Il). A reading was performed after 10 to 15 min (excitation 320 nm/emission 420 nm).

T1 sequence (P56817 46-501): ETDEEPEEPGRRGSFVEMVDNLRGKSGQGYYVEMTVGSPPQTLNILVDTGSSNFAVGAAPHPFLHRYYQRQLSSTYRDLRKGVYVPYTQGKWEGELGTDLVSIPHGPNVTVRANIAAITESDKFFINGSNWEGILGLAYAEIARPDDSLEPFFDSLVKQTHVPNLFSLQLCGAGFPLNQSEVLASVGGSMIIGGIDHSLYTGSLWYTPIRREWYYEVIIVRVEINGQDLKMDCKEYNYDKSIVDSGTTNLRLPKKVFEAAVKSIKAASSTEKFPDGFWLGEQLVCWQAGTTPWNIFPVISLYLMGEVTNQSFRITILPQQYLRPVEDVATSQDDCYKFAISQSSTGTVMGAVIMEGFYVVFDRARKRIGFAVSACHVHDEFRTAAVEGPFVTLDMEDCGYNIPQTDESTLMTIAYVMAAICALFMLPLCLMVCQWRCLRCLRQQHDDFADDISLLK

| IC50 [1] [nM] | IC50 [2] [nM] | IC50 [4] [nM] | SMILES | Aβ42 (% Ctrl)_Mean ([3]; p.o., 2 h after administration) [% Ctrl] | Aβ42 (% Ctrl)_Mean ([3]; s.c., 2 h after administration) [% Ctrl] | Aβtotal (% Ctrl)_Mean ([5]; p.o., 2 h after administration) [% Ctrl] | Aβtotal (% Ctrl)_Mean ([5]; s.c., 2 h after administration) [% Ctrl] | Aβ42 (% Ctrl)_Mean ([3]; s.c., 4 h after administration) [% Ctrl] | Aβtotal (% Ctrl)_Mean ([5]; s.c., 4 h after administration) [% Ctrl] |
| --- | --- | --- | --- | --- | --- | --- | --- | --- | --- |
| 31.6 | 148 | 35.5 | COc1cnc(C(=O)Nc2ccc(F)c(C3(C)Cn4ccnc4C(N)=N3)c2)cn1 (single isomer, unassigned) [Compound 9] | 40 | 57 | 63 | 49 | – | – |
| 50.1 | 214 | 58.9 | CC1(c2cc(NC(=O)c3ccc(F)cn3)ccc2F)Cn2ccnc2C(N)=N1 (single isomer, unassigned) [Compound 10] | – | 45 | – | 53 | – | – |
| 5.62 | – | 6.31 | C[C@@]1(c2cc(NC(=O)c3ccc(C#N)cn3)ccc2F)Cn2ccnc2C(N)=N1 [Compound 18] | 38 | – | 52 | – | – | – |
| 9.55 | 49 | 9.33 | C[C@@]1(c2cc(NC(=O)c3ncc(C#N)cc3Cl)ccc2F)Cn2ccnc2C(N)=N1 [Compound 21] | – | 33 | – | 7 | – | – |
| 33.9 | 132 | 38.9 | C[C@@]1(c2cc(NC(=O)c3ccc(F)cn3)ccc2F)Cn2cc(C(F)(F)F)nc2C(N)=N1 [Compound 24] | – | – | – | – | 50 | 67 |
